# Test results published in patent US20170021014A1, “VACCINE ADJUVANTS FOR CYTOMEGALOVIRUS PREVENTION AND TREATMENT” (THE JOHNS HOPKINS UNIVERSITY, priority 2015, published 2017).
# Columns and labels:
# MCMV (Smith strain) = assay: MCMV infection of BALB/c mice; assay type: in vivo, mouse; conditions: after infection, 10 mg/kg twice daily for 5 days
# Procedure: Animal work was carried out in strict accordance with the recommendations in the Guide for the Care and Use of Laboratory Animals of the National Institutes of Health. The animal protocol (number MO13M296) was approved by the Institutional Animal Care and Use Committee (IACUC) of Johns Hopkins University. For infection experiments 3-4 week old BALB/c mice were purchased from Harlan Laboratories (Indianapolis, Ind.). […] IMMUNOL. 980-86 (2011)) or saline intraperitoneally. Blood was collected 4 h after the second dose of iE-DAP for measurement of RANTES by ELISA (R&D Biosystems, Minneapolis, Minn.). Mice were infected with 10^6 PFU tissue culture derived MCMV (Smith strain, ATCC, VR-1399) and scarified after 14 days. Intracardiac blood was collected prior to sacrifice for gB real-time PCR assay (Vliegen et al., 98(1) VIRUS RES. 17-25 (2003)). Salivary glands, liver and spleen were harvested and stored at −80° C. Organs were homogenized in DMEM at a final concentration of 100 mg/mL Two million mouse embryonic fibroblast (MEFs) were seeded into 24-well plates. From each sample, 2.5% of the salivary gland or 10% of liver/spleen homogenate was used for infection of MEFs in triplicates. Plaques were counted after three days.
# At 14 days' post infection mice were scarified, intracardiac blood was collected and tissue homogenates were prepared for plaque assays.
# HIV-1 = conditions: acutely infected monocyte-derived macrophages and dendritic cells; cited from earlier work
# [1] = test system: pp28-luciferase Towne strain; assay: pp28-luciferase HCMV replication assay (first and second cycle); assay type: cell-based, human cytomegalovirus
# Procedure: Human Foreskin Fibroblasts (HFFs) passage 12-16 (ATCC, CRL-2088™) were grown in Dulbecco's Modified Eagle Medium (DMEM) containing 10% fetal bovine serum (FBS) (Gibco, Carlsbad, Calif.) in a 5% CO2 incubator at 37° C. The generation of NOD2-KD HFFs (HFF-shNOD2) and control cells (HFF-GIPZ) was reported. One day prior to infection or treatment, 8×10^4 cells were seeded into each well of 12-well tissue culture plates. Multiplicities of infection were specified for each experiment. The Towne HCMV strain was obtained from ATCC (VR-977). The pp28-luciferase Towne strain which expresses luciferase under the control of the pp28 late promoter has been described. Luciferase activity was measured at 72 or 96 hours post infection (hpi) using the Glomax-Multi+ Detection System (Promega, Madison, Wis.). In second cycle replication assays cell free supernatants from HFFs infected with pp28-luciferase Towne were collected 4 days post completion of first replication cycle (5-10% of total volume/well), and used for infection of fresh HFFs seeded into 12-well plates. Cell lysates were collected after 72 h for luciferase activity. Supernatants from the first cycle were also used to measure virus titer in 12-well plates and plaques were counted at day 8 post infection. A purified preparation of the pp28-luciferase Towne strain was prepared by ultracentrifugation using sucrose gradient. The HCMV TB40 strain was obtained from ATCC (VR-1578). Clinical isolates of HCMV were obtained from the microbiology laboratory at Johns Hopkins Hospital with no identifiers that could be linked to a patient. The Johns Hopkins School of Medicine Office of Human Subject Research Institutional Review Board (IRB-X) determined that the research qualified for an exemption.
smiles,measurement,setting,value
Nc1nc(O)c2ncn(COC(CO)CO)c2n1 [Ganciclovir],MCMV inhibition,MCMV (Smith strain),inhibited MCMV
"CCCCOC(=O)[C@@H](CCC(N)=O)NC(=O)[C@H](C)NC(=O)[C@@H](C)O[C@H]1[C@H](O)[C@@H](CO)OC(O)[C@@H]1NC(C)=O (stereo partly shown) [MB, murabutide]",HIV-1 replication,HIV-1,significantly inhibits HIV-1 replication
"C[C@H](N)C(=O)N[C@H](CCC(=O)NC(CCCC(N)C(=O)O)C(=O)O)C(=O)O (stereo partly drawn) [Tri-DAP, L-Ala-γ-D-Glu-meso-diamino-pimelic acid]","CMV inhibition (luciferase, protein expression, plaques)","[1]; Tri-DAP 10 μg/mL after infection, 72 hpi",results in CMV inhibition
same,CMV replication,"[1]; Tri-DAP 10 μg/mL pretreatment 18 or 72 h, MOI 1",inhibits CMV replication
